These are literature values, as cited in patent US20080004440A1, “SCAR TREATMENT USING PROTEIN PHOSPHATASE INHIBITORS” (priority 2006, published 2008).

For orientation: IC50 means the concentration needed to halve the response being measured. For orientation: Ki means a measure of affinity in units of concentration, obtained from inhibition or displacement.

Counter-ions that a name gives are not always drawn. Like-named read-outs stand apart in the source and are kept apart here. *1 amine or outer side, *2 acyl side, *3 side chain or, on linkers, in order; H or OH if unused. Where a SMILES comes first, the peptide text is derived from it. Bridges are numbered along the chain shown (N, C = ends). [ ]: non-standard residue; d: D form. Adda = CO[C@@H](Cc1ccccc1)[C@@H](C)/C=C(C)/C=C/[C@H](N[*:1])[C@H](C)C(=O)[*:2]; dAsp(3S-Me) = C[C@H](C(=O)[*:3])[C@@H](N[*:1])C(=O)[*:2]; d(γGlu) = O=C(O)[C@@H](CCC(=O)[*:2])N[*:1]; NMeDha = C=C(NC)C(=O)O

The test system of series [1] is PP2A. The following applies: cited from earlier work.
The test system of series [2] is PP1. The following applies: cited from earlier work.
The subject of series [3] is PP2A, PP1, PP2B. The settings on record: cited from earlier work.
For series [4] the following is noted: cited from earlier work.
The test system of series [5] is PP2B. The following applies: cited from earlier work.

Consider `COC[C@@H]([C@H](O)[C@H](O)C(=O)NCC[C@H](C)c1nc(/C=C/C[C@@H]2O[C@]3(C[C@@H](O)[C@@H]2C)O[C@H]([C@H](C[C@H](O)[C@H](C)[C@H](O)[C@H](C)/C=C(C)/C(C)=C/C=C/C(C)=C\C#N)OC)[C@H](OP(=O)(O)O)C3(C)C)co1)N(C)C` [Calyculin A], for which the IC50 is 0.5 to 1 nM in series [1] and 2 nM in series [2]. The “Order of inhibition / selectivity among protein phosphatases” value in series [3] is reported as “Cell-permeable. Phosphorylated polyketide. PP2A ˜ PP1 >> PP2B”. Moreover, the Cell permeability entry in series [4] (in words) was “Cell-permeable. Phosphorylated polyketide. PP2A ˜ PP1 >> PP2B”.

With `C[C@@](O)(/C=C/[C@H]1CC=CC(=O)O1)[C@@H](C[C@@H](O)\C=C/C=C\C=C\CO)OP(=O)(O)O` [Fostriecin], the concentration for half-maximal inhibition (IC50) is 3.2 nM in series [1] and 131000 nM in series [2] (inhibits PP1 only at higher concentrations).

Take `C=C1[C@@H](O)[C@@H]2O[C@]3(CC[C@H](/C=C/[C@@H](C)[C@@H]4CC(C)=C[C@@]5(O[C@H](C[C@@](C)(O)C(=O)O)CC[C@H]5O)O4)O3)CC[C@H]2O[C@@H]1[C@@H](O)C[C@H](C)[C@H]1O[C@@]2(CCCCO2)CC[C@H]1C` [Okadaic acid, ammonium salt]: the IC50 in series [1] is 0.1 nM; in series [2], 10 to 15 nM; in series [5], 5000 nM.

As for Microcystin-LW, the Cell permeability entry in series [4] was “A more cell-permeable analog of Microcystin-LR”.

Consider Microcystin-RR, for which the 50% inhibitory concentration (IC50) in series [1] was 1.4 nM. The “Order of inhibition / selectivity among protein phosphatases” value in series [3] is on record as “Cyclic peptide. PP2A ˜ PP1 >> PP2B (IC50 = 1.4 nM”.

As for `O=C(O)[C@@H]1[C@H](C(=O)O)[C@H]2CC[C@@H]1O2` [Endothall], in series [1], the IC50 is 90 nM. In series [3] (in words), the “Order of inhibition / selectivity among protein phosphatases” value is “specific inhibitor of PP2A”.

In the case of `O=P(O)(O)Oc1cccc2ccccc12` [α-Naphthyl acid Phosphate], the “Order of inhibition / selectivity among protein phosphatases” value in series [3] (in words) was “Broad-spectrum protein phosphatase inhibitor”.

On to `C=C1C(=O)N[C@H](C)C(=O)N[C@@H](CC(C)C)C(=O)N[C@@H](C(=O)O)[C@H](C)C(=O)N[C@@H](CCCNC(=N)N)C(=O)N[C@@H](/C=C/C(C)=C/[C@H](C)[C@H](Cc2ccccc2)OC)[C@H](C)C(=O)N[C@@H](C(=O)O)CCC(=O)N1C` [Microcystin-LR] (R[Adda][d(γGlu)][NMeDha][dA]L[dAsp(3S-Me)]-OH; lactam N-7), for which the IC50 was 0.04 nM in series [1] and 1.7 nM in series [2]. Also, the “Order of inhibition / selectivity among protein phosphatases” value in series [3] was “Cyclic peptide. PP2A ˜ PP1 >> PP2B (IC50 for PP2A = 40 pM”.

For “Protein phosphatase 2A inhibitor I1^PP2A: Protein phosphatase 2A inhibitor; potently inhibits all forms of PP2A”, the Ki in series [1] (all forms of PP2A) is approximately 0.1 nM.
